From US9713651B2, “Compositions, methods, and systems for the synthesis and use of imaging agents” (Lantheus Medical Imaging, Inc., priority 2012, dated 2017)

Assay: Tissue distribution of 18F imaging agents in rats
Format: in vivo, Male Sprague Dawley rats
Settings: rat, iv tail vein ~15 μCi, ± SEM; for Blood, imaging agent distribution at 15 min / Brain, imaging agent distribution at 15 min / Femur, imaging agent distribution at 15 min / Heart, imaging agent distribution at 15 min / Kidney, imaging agent distribution at 15 min / Liver, imaging agent distribution at 15 min / Lung, imaging agent distribution at 15 min / Muscle, imaging agent distribution at 15 min / Spleen, imaging agent distribution at 15 min / Pancreas, imaging agent distribution at 15 min: 15 min post injection; for Blood, imaging agent distribution at 60 min / Brain, imaging agent distribution at 60 min / Femur, imaging agent distribution at 60 min / Heart, imaging agent distribution at 60 min / Kidney, imaging agent distribution at 60 min / Liver, imaging agent distribution at 60 min / Lung, imaging agent distribution at 60 min / Muscle, imaging agent distribution at 60 min / Spleen, imaging agent distribution at 60 min / Pancreas, imaging agent distribution at 60 min: 60 min post injection
Method: Anesthetized (sodium pentobarbital at 50 mg/kg, ip or isoflurane gas inhalation) Male Sprague Dawley rats (250-350 g) received an iv injection of the imaging agent (˜15 μCi) via the tail vein. At 15 or 60 min post injection, the animals were euthanized and the required tissue samples harvested. All samples were then weighed and counted for radioactivity (Wallac Wizard 1480 or Packard Cobra II Autogamma); regional tissue uptake of the imaging agent was thus expressed as a percentage of the total injected dose per gram of tissue (% ID/g).
The generic structure depicted below highlights specific structural features evaluated during distribution experiments.

Row | Compound | Blood, imaging agent distribution at 15 min [% ID/g] | Brain, imaging agent distribution at 15 min [% ID/g] | Femur, imaging agent distribution at 15 min [% ID/g] | Heart, imaging agent distribution at 15 min [% ID/g] | Kidney, imaging agent distribution at 15 min [% ID/g] | Liver, imaging agent distribution at 15 min [% ID/g] | Lung, imaging agent distribution at 15 min [% ID/g] | Muscle, imaging agent distribution at 15 min [% ID/g] | Spleen, imaging agent distribution at 15 min [% ID/g] | Blood, imaging agent distribution at 60 min [% ID/g] | Brain, imaging agent distribution at 60 min [% ID/g] | Femur, imaging agent distribution at 60 min [% ID/g] | Heart, imaging agent distribution at 60 min [% ID/g] | Kidney, imaging agent distribution at 60 min [% ID/g] | Liver, imaging agent distribution at 60 min [% ID/g] | Lung, imaging agent distribution at 60 min [% ID/g] | Muscle, imaging agent distribution at 60 min [% ID/g] | Spleen, imaging agent distribution at 60 min [% ID/g] | Pancreas, imaging agent distribution at 15 min [% ID/g] | Pancreas, imaging agent distribution at 60 min [% ID/g]
1 | CC(C)(C)n1ncc(OCc2ccc(OCCCF)c(Cl)c2)c(Cl)c1=O [Example 67C] | 0.26 ± 0.05 | 0.42 ± 0.01 | 0.33 ± 0.01 | 4.21 ± 0.29 | 3.04 ± 0.21 | 2.67 ± 0.17 | 0.50 ± 0.08 | 0.24 ± 0.04 | 0.37 ± 0.05 | 0.20 ± 0.07 | 0.44 ± 0.03 | 0.84 ± 0.07 | 4.54 ± 0.29 | 1.77 ± 0.25 | 0.65 ± 0.12 | 0.61 ± 0.32 | 0.26 ± 0.02 | 0.18 ± 0.02 | – | –
2 | [2H]C([2H])(OCCF)c1ccc(COc2cnn(C(C)(C)C)c(=O)c2Cl)cc1 [Example 67E] | 0.17 ± 0.02 | 0.97 ± 0.11 | 0.50 ± 0.04 | 4.80 ± 0.27 | 2.61 ± 0.18 | 0.66 ± 0.09 | 0.39 ± 0.05 | 0.77 ± 0.09 | 0.36 ± 0.08 | 0.26 ± 0.03 | 0.62 ± 0.04 | 0.69 ± 0.05 | 3.61 ± 0.45 | 0.98 ± 0.04 | 0.53 ± 0.06 | 0.34 ± 0.03 | 0.69 ± 0.17 | 0.25 ± 0.01 | 0.82 ± 0.07 | 0.43 ± 0.05
3 | CC(C)(C)n1ncc(OCc2ccc([Si](F)(C(C)(C)C)C(C)(C)C)cc2)c(Cl)c1=O [Example 67N] | 0.22 ± 0.04 | 0.03 ± 0.00 | 0.14 ± 0.02 | 0.65 ± 0.09 | 0.51 ± 0.09 | 4.91 ± 0.49 | 1.31 ± 0.24 | 0.06 ± 0.00 | 3.47 ± 0.80 | – | – | – | – | – | – | – | – | – | – | –

Results, then the molecule that gave them:

Row | Blood, imaging agent distribution at 15 min [% ID/g] | Brain, imaging agent distribution at 15 min [% ID/g] | Femur, imaging agent distribution at 15 min [% ID/g] | Heart, imaging agent distribution at 15 min [% ID/g] | Kidney, imaging agent distribution at 15 min [% ID/g] | Liver, imaging agent distribution at 15 min [% ID/g] | Lung, imaging agent distribution at 15 min [% ID/g] | Muscle, imaging agent distribution at 15 min [% ID/g] | Spleen, imaging agent distribution at 15 min [% ID/g] | Blood, imaging agent distribution at 60 min [% ID/g] | Brain, imaging agent distribution at 60 min [% ID/g] | Femur, imaging agent distribution at 60 min [% ID/g] | Heart, imaging agent distribution at 60 min [% ID/g] | Kidney, imaging agent distribution at 60 min [% ID/g] | Liver, imaging agent distribution at 60 min [% ID/g] | Lung, imaging agent distribution at 60 min [% ID/g] | Muscle, imaging agent distribution at 60 min [% ID/g] | Spleen, imaging agent distribution at 60 min [% ID/g] | Pancreas, imaging agent distribution at 15 min [% ID/g] | Pancreas, imaging agent distribution at 60 min [% ID/g] | Compound
4 | 0.53 ± 0.13 | 0.55 ± 0.31 | 0.52 ± 0.19 | 2.54 ± 0.20 | 0.79 ± 0.07 | 0.96 ± 0.10 | 0.97 ± 0.13 | 0.24 ± 0.04 | 0.35 ± 0.05 | 0.73 ± 0.16 | 2.33 ± 0.12 | 0.43 ± 0.03 | 0.55 ± 0.06 | 0.43 ± 0.04 | 0.43 ± 0.04 | 1.03 ± 0.22 | 0.31 ± 0.04 | 0.26 ± 0.03 | – | – | CC(C)(C)n1ncc(CCc2ccc(COCCF)cc2)c(Cl)c1=O [Example 67M]
5 | 0.50 ± 0.18 | 0.59 ± 0.03 | 0.40 ± 0.05 | 2.19 ± 0.36 | 0.88 ± 0.05 | 0.33 ± 0.10 | 0.46 ± 0.12 | 0.35 ± 0.04 | 0.32 ± 0.11 | 0.47 ± 0.04 | 0.39 ± 0.05 | 0.58 ± 0.06 | 0.98 ± 0.16 | 0.44 ± 0.02 | 0.32 ± 0.03 | 0.38 ± 0.03 | 0.33 ± 0.01 | 0.28 ± 0.03 | 0.41 ± 0.03 | 0.26 ± 0.01 | CC(OCCF)c1ccc(COc2cnn(C(C)(C)C)c(=O)c2Cl)cc1 (stereo not drawn) [Example 67G]
6 | 0.11 ± 0.02 | 0.49 ± 0.10 | 0.28 ± 0.04 | 2.34 ± 0.57 | 1.13 ± 0.11 | 0.33 ± 0.02 | 0.19 ± 0.03 | 0.28 ± 0.13 | 0.18 ± 0.01 | 0.16 ± 0.01 | 0.36 ± 0.01 | 0.31 ± 0.02 | 1.78 ± 0.15 | 0.48 ± 0.04 | 0.30 ± 0.01 | 0.19 ± 0.01 | 0.35 ± 0.09 | 0.13 ± 0.00 | 0.43 ± 0.10 | 0.23 ± 0.02 | Cc1c(OCc2ccc(COCCF)cc2)cnn(C(C)(C)C)c1=O [Example 67I]
